# US6284785A, “1-arenesulfonyl-2-aryl-pyrrolidine and pyridine derivatives” (Hoffmann- La Roche Inc., priority 1999, dated 2001)
# Where a name gives a salt, the structure may show the parent alone.
# Target: T1, rat mGlu 1a receptor (Rattus norvegicus, UniProt P23385)
# T1 construct: expressed in transfected cells; host or cells: EBNA cells (transient transfection)
# Experiment: [Ca2+]i measurements (FLIPR, Fluo-3 AM) on mGlu 1a transfected EBNA cells; agonist or antagonist (against 10 μM glutamate)
# Format: cell-based
# Settings: for Remarks (agonist / antagonist): table of substituents of the Examples, column Remarks
# Experimental: cDNA encoding rat mGlu 1a receptor obtained from Prof. Nakanishi (Kyoto, Japan) was transiently tranfected into EBNA cells using a procedure described by Schlaeger et. al, New Dev. New Appl. Anim Cell Techn., Proc. ESACT Meet., 15th (1998), 105-112 and 117-120. [Ca^2+ ]i measurements were performed on mGlu 1a transfected EBNA cells after incubation of the cells with Fluo-3 AM (0.5 μM final concentration) for 1hour at 37° C. followed by 4 washes with assay buffer (DMEM supplemented with Hank's salt and 20 mM HEPES. [Ca^2+ ]i measurements were done using a fluorometric imaging plate reader (FLIPR, Molecular Devices Corporation, La Jolla, Calif. USA). When compounds were evaluated as antagonists they were tested against 10 μM glutamate as agonist.
# The inhibition (antagonists) or activation (agonists) curves were fitted with a four parameter logistic equation giving EC50, IC50, and Hill coefficient using the iterative non linear curve fitting software Origin (Microcal Software Inc., Northampton, Mass., USA).
# T1 sequence (P23385 19-1199): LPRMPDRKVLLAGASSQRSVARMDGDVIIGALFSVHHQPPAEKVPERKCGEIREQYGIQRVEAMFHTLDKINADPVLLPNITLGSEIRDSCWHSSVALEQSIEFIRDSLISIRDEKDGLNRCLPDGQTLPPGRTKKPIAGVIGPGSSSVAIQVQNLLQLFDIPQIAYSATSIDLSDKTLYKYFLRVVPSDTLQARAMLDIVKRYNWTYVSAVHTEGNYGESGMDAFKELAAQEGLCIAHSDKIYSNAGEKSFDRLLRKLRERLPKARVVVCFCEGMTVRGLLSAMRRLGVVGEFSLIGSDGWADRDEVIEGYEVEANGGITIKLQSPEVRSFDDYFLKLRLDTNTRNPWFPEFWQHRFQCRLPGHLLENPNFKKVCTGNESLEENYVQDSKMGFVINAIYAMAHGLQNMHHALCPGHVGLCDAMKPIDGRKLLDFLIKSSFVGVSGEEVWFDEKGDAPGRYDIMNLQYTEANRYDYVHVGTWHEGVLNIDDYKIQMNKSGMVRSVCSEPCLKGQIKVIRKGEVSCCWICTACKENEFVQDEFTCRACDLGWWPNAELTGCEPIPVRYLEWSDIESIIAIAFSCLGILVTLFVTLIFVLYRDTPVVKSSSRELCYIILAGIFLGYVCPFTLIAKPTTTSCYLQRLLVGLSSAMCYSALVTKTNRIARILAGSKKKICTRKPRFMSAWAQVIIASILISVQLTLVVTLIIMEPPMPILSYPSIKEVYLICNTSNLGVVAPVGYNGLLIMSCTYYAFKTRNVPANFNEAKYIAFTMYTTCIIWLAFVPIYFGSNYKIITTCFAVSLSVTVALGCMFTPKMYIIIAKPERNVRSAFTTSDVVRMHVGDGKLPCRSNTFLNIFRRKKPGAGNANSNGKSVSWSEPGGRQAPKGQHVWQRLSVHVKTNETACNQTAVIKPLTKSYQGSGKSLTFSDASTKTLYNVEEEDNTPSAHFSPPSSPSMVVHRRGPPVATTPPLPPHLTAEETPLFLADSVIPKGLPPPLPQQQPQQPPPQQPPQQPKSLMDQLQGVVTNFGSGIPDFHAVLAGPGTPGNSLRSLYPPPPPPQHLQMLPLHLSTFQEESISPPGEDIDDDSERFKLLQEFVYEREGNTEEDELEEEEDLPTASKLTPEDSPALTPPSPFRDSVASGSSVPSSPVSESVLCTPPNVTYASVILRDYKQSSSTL
Structure (SMILES),Remarks (agonist / antagonist),agonistic / antagonistic activity to the mGlu receptor,agonist/antagonist (activity-data table),"EC50 (agonist, activation of mGlu 1a in EBNA cells, read-out: IC50 (compounds marked agonist)) [nM]"
"O=S(=O)(c1ccccc1)N1CCCC1c1ccc(C(F)(F)F)cc1 (racemic) [Example 75, (RS)-1-Benzenesulfonyl-2-(4-trifluoromethyl-phenyl)-pyrrolidine]",Antagonist,,,
"CCc1ccc(C2CCCN2S(=O)(=O)c2ccc(C)cc2)cc1 (racemic) [Example 78, (RS)-2-(4-Ethyl-phenyl)-1-(toluene-4-sulfonyl)-pyrrolidine]",Agonist,agonistic activty,,
"CCc1ccc(C2CCCN2S(=O)(=O)c2ccc(Cl)cc2)cc1 (racemic) [Example 79, (RS)-2-(4-Ethyl-phenyl)-1-(4-chloro-benzenesulfonyl)-pyrrolidine]",Antagonist,,,
"CCc1ccc(C2CCCN2S(=O)(=O)c2ccc(F)cc2)cc1 (racemic) [Example 80, (RS)-2-(4-Ethyl-phenyl)-1-(4-fluoro-benzenesulfonyl)-pyrrolidine]",Antagonist,,,
"Cc1ccc(S(=O)(=O)N2CCCC2c2cccnc2)cc1 (racemic) [Example 83, (RS)-3-[1-(Toluene-4-sulfonyl)-pyrrolidin-2-yl]-pyridine]",Agonist,agonistic activty,,
"O=S(=O)(c1ccc(CO)cc1)N1CCCC1c1ccc(F)cc1 (racemic) [Example 84, (RS)-2-(4-Fluoro-phenyl)-1-(4-hydroxymethyl-benzenesulfonyl)-pyrrolidine]",Agonist,agonistic activty,,
"COCc1ccc(S(=O)(=O)N2CCCC2c2ccc(F)cc2)cc1 (racemic) [Example 85, (RS)-2-(4-Fluoro-phenyl)-1-(4-methoxymethyl-benzenesulfonyl)-pyrrolidine]",Agonist,agonistic activty,,
"O=C(O)/C=C/C(=O)O.O=S(=O)(c1ccc(CN2CCOCC2)cc1)N1CCCC1c1ccc(F)cc1 (racemic) [Example 86, (RS)-4-{4-[2-(4-Fluoro-phenyl)-pyrrolidine-1-sulfonyl]-benzyl}-morpholine fumarate (1:1)]",Antagonist,,,
"NCc1ccc(S(=O)(=O)N2CCCC2c2ccc(F)cc2)cc1 (racemic) [Example 87, (RS)-4-[2-(4-Fluoro-phenyl)-pyrrolidine-1-sulfonyl]-benzylamine fumarate (1:0.5)]",Antagonist,,,
"Cc1ccc(S(=O)(=O)N2CCC(C)C2c2ccc(F)cc2)cc1 (racemic) [Example 88, Mixture of (2RS,3RS )- and (2RS,3SR)-2-(4-fluoro-phenyl)-3-methyl-1-(toluene-1-sufonyl)-pyrrolidine]",agonist,agonistic activty,agonist,620
"CC1CCN(S(=O)(=O)c2ccc(Cl)cc2)C1c1ccc(F)cc1 (racemic) [Example 89, Mixture of (2RS,3RS)- and (2RS,3 SR)-1-(4-chloro-benzenesulfonyl)-2-(4-fluoro-phenyl)-3-methyl-pyrrolidine]",agonist,agonistic activty,,
"Cc1ccc(S(=O)(=O)N2CC[C@@H](CO)[C@@H]2c2ccc(F)cc2)cc1 (racemic) [Example 91, (2RS,3 RS)-[2-(4-Fluoro-phenyl)-1-(toluene-4-sulfonyl)-pyrrolidin-3-yl]-methanol]",agonist,agonistic activty,,
"O=S(=O)(c1ccc(Cl)cc1)N1CCC[C@@H]1c1ccc(F)cc1 [Example 76, (R)-1-(4-Chloro-benzenesulfonyl)-2-(4-fluoro-phenyl)-pyrrolidine]",Agonist,,,
"O=S(=O)(c1ccc(Cl)cc1)N1CCC[C@H]1c1ccc(F)cc1 [Example 77, (S)-1-(4-Chloro-benzenesulfonyl)-2-(4-fluoro-phenyl)-pyrrolidine]",Agonist,agonistic activty,,
"Cc1ccc(S(=O)(=O)N2CCC[C@@H]2c2ccc(F)cc2)cc1 [Example 81, (R)-2-(4-Fluoro-phenyl)-1-(toluene-4-sulfonyl)-pyrrolidine]",Agonist,agonistic activty,,
"Cc1ccc(S(=O)(=O)N2CCC[C@H]2c2ccc(F)cc2)cc1 [Example 82, (S)-2-(4-Fluoro-phenyl)-1-(toluene-4-sulfonyl)-pyrrolidine]",Agonist,agonistic activty,,
